# PubChem BioAssay AID292 (DTP/NCI, 2004)
# Values joined by “and” are separate entries in the source; they are usually repeats but may differ in a detail not shown here. Equal values may be shown once. Toxic doses and inconclusive results are not listed.
# Tested on: B6C3F1 mice, ip Sarcoma M5076, median survival T/C
# Assay: NCI In Vivo Anticancer Drug Screen. Data for tumor model Sarcoma M5076 (intraperitoneal) in B6C3F1 mice
# Details: endpoint: median survival time, higher = longer survival
# In short: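 Transplantable tumour in mice; compound-treated vs vehicle-treated groups. Read-out: survival. Value = treated/control ratio.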
# [1] = dose: 25.0 mg/kg/injection, schedule: Q04DX004 (ip), vehicle: saline
# [2] = dose: 50.0 mg/kg/injection, schedule: Q04DX004 (ip), vehicle: saline
smiles,measurement,setting,value
CCC(/C=C/C1OC(=O)C=CC1C)=C\C(C)C/C=C/C(C)=C/C(C)C(=O)C(C)C(O)C(C)C/C(C)=C/C(=O)O (stereo not given),T/C,"dose: 25.0 micrograms/kg/injection, schedule: Q04DX004 (ip), vehicle: other",104 % of control
same,T/C,"dose: 25.0 micrograms/kg/injection, schedule: Q04DX004 (ip), vehicle: saline + alcohol",162 % of control
same,T/C,"dose: 25.0 micrograms/kg/injection, schedule: Q04DX004 (ip), vehicle: saline",110 % of control and 111 % of control
same,T/C,"dose: 25.0 micrograms/kg/injection, schedule: Q04DX004 (iv), vehicle: saline",101 % of control
same,T/C,"dose: 50.0 micrograms/kg/injection, schedule: Q04DX004 (ip), vehicle: other",114 % of control
same,T/C,"dose: 50.0 micrograms/kg/injection, schedule: Q04DX004 (ip), vehicle: saline + alcohol",163 % of control and 175 % of control
same,T/C,"dose: 50.0 micrograms/kg/injection, schedule: Q04DX004 (ip), vehicle: saline",109 % of control and 114 % of control
same,T/C,"dose: 50.0 micrograms/kg/injection, schedule: Q04DX004 (iv), vehicle: saline",104 % of control
same,T/C,"dose: 100.0 micrograms/kg/injection, schedule: Q04DX004 (ip), vehicle: other",121 % of control
same,T/C,"dose: 100.0 micrograms/kg/injection, schedule: Q04DX004 (ip), vehicle: saline + alcohol",166 % of control and 188 % of control
same,T/C,"dose: 100.0 micrograms/kg/injection, schedule: Q04DX004 (ip), vehicle: saline",124 % of control
same,T/C,"dose: 100.0 micrograms/kg/injection, schedule: Q04DX004 (iv), vehicle: saline",110 % of control
same,T/C,"dose: 100.0 micrograms/kg/injection, schedule: Q04DX004 (sc), vehicle: other",106 % of control
same,T/C,"dose: 200.0 micrograms/kg/injection, schedule: Q04DX004 (ip), vehicle: other",121 % of control
same,T/C,"dose: 200.0 micrograms/kg/injection, schedule: Q04DX004 (ip), vehicle: saline + alcohol",184 % of control and 195 % of control
same,T/C,"dose: 200.0 micrograms/kg/injection, schedule: Q04DX004 (ip), vehicle: saline",124 % of control
same,T/C,"dose: 200.0 micrograms/kg/injection, schedule: Q04DX004 (iv), vehicle: saline",102 % of control
same,T/C,"dose: 200.0 micrograms/kg/injection, schedule: Q04DX004 (sc), vehicle: other",106 % of control
same,T/C,"dose: 400.0 micrograms/kg/injection, schedule: Q04DX004 (ip), vehicle: other",152 % of control
same,T/C,"dose: 400.0 micrograms/kg/injection, schedule: Q04DX004 (ip), vehicle: saline + alcohol",163 % of control and 184 % of control and 195 % of control
same,T/C,"dose: 400.0 micrograms/kg/injection, schedule: Q04DX004 (iv), vehicle: saline",105 % of control
same,T/C,"dose: 400.0 micrograms/kg/injection, schedule: Q04DX004 (sc), vehicle: other",106 % of control
same,T/C,"dose: 800.0 micrograms/kg/injection, schedule: Q04DX004 (ip), vehicle: saline + alcohol",191 % of control and 217 % of control
same,T/C,"dose: 800.0 micrograms/kg/injection, schedule: Q04DX004 (ip), vehicle: saline",152 % of control
same,T/C,"dose: 800.0 micrograms/kg/injection, schedule: Q04DX004 (iv), vehicle: saline",116 % of control
same,T/C,"dose: 800.0 micrograms/kg/injection, schedule: Q04DX004 (sc), vehicle: other",119 % of control
Cc1ccc(C2=CSC3=NCCN23)cc1Cl,T/C,"dose: 3.0 mg/kg/injection, schedule: Q04DX004 (ip), vehicle: saline",103 % of control
same,T/C,"dose: 6.0 mg/kg/injection, schedule: Q04DX004 (ip), vehicle: saline",107 % of control
same,T/C,"dose: 12.0 mg/kg/injection, schedule: Q04DX004 (ip), vehicle: saline",104 % of control
same,T/C,"dose: 24.0 mg/kg/injection, schedule: Q04DX004 (ip), vehicle: saline",100 % of control
same,T/C,[1],104 % of control
same,T/C,[2],96 % of control
CCC/C=C/C=C/C(=O)OC1/C(=C/C(=O)OC)CC2CC(C(C)O)OC(=O)CC(O)CC3CC(OC(C)=O)C(C)(C)C(O)(CC4C/C(=C/C(=O)OC)CC(/C=C/C(C)(C)C1(O)O2)O4)O3 (stereo not given),T/C,"dose: 10.0 micrograms/kg/injection, schedule: Q01DX009 (ip), vehicle: saline",102 % of control
same,T/C,"dose: 20.0 micrograms/kg/injection, schedule: Q01DX009 (ip), vehicle: saline",104 % of control
same,T/C,"dose: 40.0 micrograms/kg/injection, schedule: Q01DX009 (ip), vehicle: saline",107 % of control
same,T/C,"dose: 80.0 micrograms/kg/injection, schedule: Q01DX009 (ip), vehicle: saline",109 % of control
Cc1ccc(NN=O)nc1,T/C,"dose: 3.13 mg/kg/injection, schedule: Q04DX004 (ip), vehicle: water",113 % of control
same,T/C,"dose: 6.25 mg/kg/injection, schedule: Q04DX004 (ip), vehicle: water",113 % of control
same,T/C,"dose: 25.0 mg/kg/injection, schedule: Q04DX004 (ip), vehicle: water",160 % of control
same,T/C,"dose: 50.0 mg/kg/injection, schedule: Q04DX004 (ip), vehicle: water",160 % of control
[Cl][Mn][Cl],T/C,"dose: 12.5 mg/kg/injection, schedule: Q04DX004 (ip), vehicle: saline",96 % of control
same,T/C,[1],100 % of control
same,T/C,[2],124 % of control
same,T/C,"dose: 100.0 mg/kg/injection, schedule: Q04DX004 (ip), vehicle: saline",111 % of control
Oc1c(Cl)cc(Cl)cc1C=NCCSc1ccc(Cl)cc1,T/C,"dose: 50.0 mg/kg/injection, schedule: Q04DX004 (ip), vehicle: Klucel (hydroxypropylcellulose) (HPC)",97 % of control and 121 % of control
same,T/C,"dose: 100.0 mg/kg/injection, schedule: Q04DX004 (ip), vehicle: Klucel (hydroxypropylcellulose) (HPC)",98 % of control and 117 % of control
same,T/C,"dose: 200.0 mg/kg/injection, schedule: Q04DX004 (ip), vehicle: Klucel (hydroxypropylcellulose) (HPC)",97 % of control and 110 % of control
same,T/C,"dose: 400.0 mg/kg/injection, schedule: Q04DX004 (ip), vehicle: Klucel (hydroxypropylcellulose) (HPC)",94 % of control and 112 % of control
same,T/C,"dose: 800.0 mg/kg/injection, schedule: Q04DX004 (ip), vehicle: Klucel (hydroxypropylcellulose) (HPC)",100 % of control
O=C(NNC(=S)NC1OC(CO)C(O)C(O)C1O)c1cccc(C(=O)NNC(=S)NC2OC(CO)C(O)C(O)C2O)n1 (stereo not given),T/C,"dose: 37.5 mg/kg/injection, schedule: Q04DX004 (ip), vehicle: saline with Tween-80",97 % of control
same,T/C,"dose: 37.5 mg/kg/injection, schedule: Q04DX004 (ip), vehicle: saline",101 % of control
same,T/C,"dose: 75.0 mg/kg/injection, schedule: Q04DX004 (ip), vehicle: saline with Tween-80",98 % of control
same,T/C,"dose: 75.0 mg/kg/injection, schedule: Q04DX004 (ip), vehicle: saline",96 % of control
same,T/C,"dose: 150.0 mg/kg/injection, schedule: Q04DX004 (ip), vehicle: saline with Tween-80",98 % of control
same,T/C,"dose: 150.0 mg/kg/injection, schedule: Q04DX004 (ip), vehicle: saline",101 % of control
same,T/C,"dose: 300.0 mg/kg/injection, schedule: Q04DX004 (ip), vehicle: saline with Tween-80",99 % of control
same,T/C,"dose: 300.0 mg/kg/injection, schedule: Q04DX004 (ip), vehicle: saline",96 % of control
same,T/C,"dose: 600.0 mg/kg/injection, schedule: Q04DX004 (ip), vehicle: saline with Tween-80",98 % of control
same,T/C,"dose: 600.0 mg/kg/injection, schedule: Q04DX004 (ip), vehicle: saline",103 % of control
CNC(=S)C#N,T/C,"dose: 12.5 mg/kg/injection, schedule: Q04DX004 (ip), vehicle: saline + Tween-80 + alcohol",90 % of control
same,T/C,"dose: 50.0 mg/kg/injection, schedule: Q04DX004 (ip), vehicle: saline + Tween-80 + alcohol",89 % of control
O=C(Nc1ccccc1)c1cc2ccccc2oc1=O,T/C,"dose: 28.13 mg/kg/injection, schedule: Q04DX004 (ip), vehicle: saline with Tween-80",94 % of control
same,T/C,"dose: 56.25 mg/kg/injection, schedule: Q04DX004 (ip), vehicle: saline with Tween-80",92 % of control
COc1ccc([C@@]23Oc4cc(OC)cc(OC)c4[C@]2(O)[C@H](O)[C@H](C(=O)N(C)C)[C@H]3c2ccccc2)cc1,T/C,"dose: 1.0 mg/kg/injection, schedule: Q04DX004 (ip), vehicle: Klucel (hydroxypropylcellulose) (HPC)",97 % of control
same,T/C,"dose: 2.0 mg/kg/injection, schedule: Q04DX004 (ip), vehicle: Klucel (hydroxypropylcellulose) (HPC)",105 % of control
same,T/C,"dose: 4.0 mg/kg/injection, schedule: Q04DX004 (ip), vehicle: Klucel (hydroxypropylcellulose) (HPC)",109 % of control
same,T/C,"dose: 8.0 mg/kg/injection, schedule: Q04DX004 (ip), vehicle: Klucel (hydroxypropylcellulose) (HPC)",123 % of control
C=C1C(O)C2OC3(CCC(/C=C/C(C)C4CC5(C)SC5C5(OC(CC(C)(O)C(=O)O)CCC5O)O4)O3)CCC2OC1C(O)CC(C)C1OC2(CCCCO2)CCC1C (stereo not given),T/C,"dose: 2.5 micrograms/kg/injection, schedule: Q04DX004 (ip), vehicle: saline + alcohol",101 % of control
same,T/C,"dose: 5.0 micrograms/kg/injection, schedule: Q04DX004 (ip), vehicle: saline + alcohol",96 % of control
same,T/C,"dose: 10.0 micrograms/kg/injection, schedule: Q04DX004 (ip), vehicle: saline + alcohol",99 % of control
same,T/C,"dose: 20.0 micrograms/kg/injection, schedule: Q04DX004 (ip), vehicle: saline + alcohol",95 % of control
same,T/C,"dose: 40.0 micrograms/kg/injection, schedule: Q04DX004 (ip), vehicle: saline + alcohol",95 % of control
CCC1OCC(C(Cl)CCl)O1 (stereo not given),T/C,"dose: 50.0 mg/kg/injection, schedule: Q04DX004 (ip), vehicle: saline with Tween-80",100 % of control
same,T/C,"dose: 100.0 mg/kg/injection, schedule: Q04DX004 (ip), vehicle: saline with Tween-80",97 % of control
same,T/C,"dose: 200.0 mg/kg/injection, schedule: Q04DX004 (ip), vehicle: saline with Tween-80",93 % of control
